From patent US9326513B2, “Fungicidal compositions” (Syngenta Participations AG, priority 2011, dated 2016)
Read-outs that look alike come from different tables or passages of the source.

Tests used:
[1] = test system: Monographella nivalis (syn. Microdochium nivale, Fusarium nivale); assay: Monographella nivalis (snow mould, foot rot of cereals), PDB microtiter plate, visual after 72 hrs; assay type: cell-based
[2] = test system: Botrytis cinerea; assay: Botrytis cinerea (gray mould), PDB microtiter plate, visual after 72 hrs; assay type: cell-based; conditions: for inhibition at 0.025 ppm: rate 0.025 ppm; for inhibition at 0.05 ppm: rate 0.05 ppm; for inhibition at 0.1 ppm: rate 0.1 ppm; for inhibition at 2 ppm: rate 2 ppm; for inhibition at 0.625 ppm: rate 0.625 ppm
[3] = Monographella nivalis, applied alone, rate 0.3125 ppm
[4] = Monographella nivalis, applied alone, rate 0.625 ppm
[5] = Monographella nivalis, applied alone, rate 1.25 ppm
[6] = Monographella nivalis, applied alone, rate 2.5 ppm
[7] = Monographella nivalis, single compound, rate 5 ppm
[8] = applied alone, rate 0.15625 ppm
[9] = Monographella nivalis, applied alone, 0.0625 ppm
[10] = Monographella nivalis, applied alone
[11] = Botrytis cinerea, alone, rate 1.25 ppm
[12] = Botrytis cinerea, alone, rate 2.5 ppm, read-out: Activity (%)

`COC(=O)N(OC)c1ccccc1COc1ccn(-c2ccc(Cl)cc2)n1` [Pyraclostrobin] showed an inhibition at 0.0015625 ppm ([1]; Monographella nivalis, applied alone, rate 0.0015625 ppm) of 0%, an inhibition at 0.003125 ppm ([1]; Monographella nivalis, applied alone, rate 0.003125 ppm) of 0% and an inhibition at 0.00625 ppm ([1]; Monographella nivalis, single compound, rate 0.00625 ppm) of 0%. The inhibition at 0.0125 ppm ([1]; Monographella nivalis, single compound, rate 0.0125 ppm) was 50%, the inhibition at 0.025 ppm ([2]; Botrytis cinerea, alone) was 0% and the inhibition at 0.05 ppm ([2]; Botrytis cinerea, alone) was 0%. The inhibition at 0.1 ppm ([2]; Botrytis cinerea, alone) was 0%, the inhibition at 0.2 ppm ([2]; Botrytis cinerea, alone, rate 0.2 ppm) was 20% and the inhibition at 0.25 ppm ([2]; Botrytis cinerea, alone, rate 0.25 ppm) was 50%. For the same molecule, the inhibition at 2 ppm ([2]; Botrytis cinerea, alone) was 70%.
For `CP(=O)(O)CCC(N)C(=O)O` (centres unmarked) [Glufosinate], the inhibition at 0.3125 ppm [1, 3] was 0%, the inhibition at 0.625 ppm [1, 4] was 0% and the inhibition at 1.25 ppm [1, 5] was 0%. For the same molecule, the inhibition at 2.5 ppm [1, 6] was 0%, the inhibition at 5 ppm [1, 7] was 0% and the inhibition at 2.5 ppm ([2]; Botrytis cinerea, read-out: Activity (%), alone, rate 2.5 ppm) was 0%. The inhibition at 5 ppm ([2]; Botrytis cinerea, read-out: Activity (%), alone, rate 5 ppm) was 0%, the inhibition at 10 ppm ([2]; Botrytis cinerea, read-out: Activity (%), alone, rate 10 ppm) was 0% and the inhibition at 20 ppm ([2]; Botrytis cinerea, read-out: Activity (%), alone, rate 20 ppm) was 0%.
`[Mn+2].[O-2]` [Manganese oxide] was tested, and the “Activity (%)” value [1, 8] was 0%, the “Activity (%)” value ([1]; applied alone, rate 0.3125 ppm) was 0% and the “Activity (%)” value ([1]; applied alone, rate 0.625 ppm) was 0%. The “Activity (%)” value ([1]; applied alone, rate 1.25 ppm) was 0% and the “Activity (%)” value ([1]; applied alone, rate 2.5 ppm) was 0%.
With `O=C(O)COc1ccc(Cl)cc1Cl` [2,4-D] the “Activity (%)” value ([1]; applied alone, 0.625 ppm) was 0%, the “Activity (%)” value ([1]; applied alone, 1.25 ppm) was 0% and the “Activity (%)” value ([1]; applied alone, 2.5 ppm) was 0%. The “Activity (%)” value ([1]; applied alone, 5 ppm) was 0%, the “Activity (%)” value ([1]; applied alone, 10 ppm) was 0% and the “Activity (%)” value ([1]; applied alone, rate 0.3125 ppm) was 0%. For the same molecule, the “Activity (%)” value ([1]; applied alone, rate 0.625 ppm) was 0%, the “Activity (%)” value ([1]; applied alone, rate 1.25 ppm) was 0% and the “Activity (%)” value ([1]; applied alone, rate 2.5 ppm) was 0%. The “Activity (%)” value ([2]; alone, rate 2.5 ppm) was 0%, the “Activity (%)” value ([2]; alone, rate 5 ppm) was 0% and the “Activity (%)” value ([2]; alone, rate 10 ppm) was 0%.
With `COCCOCc1nc(C(F)(F)F)ccc1C(=O)C1=C(O)C2CCC(C2)C1=O` (centres unmarked) [Bicyclopyrone] the “Activity (%)” value ([1]; applied alone, rate 0.078125 ppm) was 0%, the “Activity (%)” value [1, 8] was 0% and the “Activity (%)” value ([1]; applied alone, rate 0.3125 ppm) was 0%. The “Activity (%)” value ([2]; alone, rate 1.25 ppm) was 0%, the “Activity (%)” value ([2]; alone, rate 2.5 ppm) was 0% and the “Activity (%)” value ([2]; alone, rate 5 ppm) was 0%.
Work on `CON(C(=O)c1cn(C)nc1C(F)F)C(C)Cc1c(Cl)cc(Cl)cc1Cl` (centres unmarked) [(VI), 3-(difluoromethyl)-N-methoxy-1-methyl-N-[1-methyl-2-(2,4,6-trichlorophenyl)ethyl]-1H-pyrazole-4-carboxamide, reference compound] yielded an inhibition at 0.0625 ppm [1, 9] of 0%, an inhibition at 0.125 ppm [1, 10] of 50% and an inhibition at 0.0078125 ppm ([2]; Botrytis cinerea, alone, rate 0.0078125 ppm) of 20%. For the same molecule, the inhibition at 0.015625 ppm ([2]; Botrytis cinerea, alone, rate 0.015625 ppm) was 50%, the inhibition at 0.03125 ppm ([2]; Botrytis cinerea, alone, rate 0.03125 ppm, read-out: Activity (%)) was 70% and the inhibition at 0.0625 ppm ([2]; Botrytis cinerea, alone, rate 0.0625 ppm, read-out: Activity (%)) was 70%.
For `N#Cc1c(Cl)c(Cl)c(Cl)c(C#N)c1Cl` [Chlorotalonil], the “Activity (%)” value ([2]; alone, rate 0.0625 ppm) was 0%, the “Activity (%)” value ([2]; alone, rate 0.125 ppm) was 0% and the “Activity (%)” value ([2]; alone, rate 0.25 ppm) was 20%.
For `CS(=O)(=O)c1ccc(C(=O)C2C(=O)CCCC2=O)c([N+](=O)[O-])c1` [Mesotrione], the inhibition at 2.5 ppm ([1]; Monographella nivalis, applied alone, 2.5 ppm) was 0%, the inhibition at 5 ppm ([1]; Monographella nivalis, applied alone, 5 ppm) was 0% and the inhibition at 0.078125 ppm ([1]; Monographella nivalis, applied alone, rate 0.078125 ppm) was 0%. The inhibition at 0.15625 ppm ([1]; Monographella nivalis, applied alone, rate 0.15625 ppm) was 0%, the inhibition at 0.3125 ppm [1, 3] was 0% and the inhibition at 0.625 ppm [1, 4] was 0%. It also gave an inhibition at 1.25 ppm [1, 5] of 0%, an inhibition at 2.5 ppm [1, 6] of 0% and an inhibition at 10 ppm ([1]; Monographella nivalis, single compound, rate 10 ppm) of 0%. For the same molecule, the inhibition at 20 ppm ([1]; Monographella nivalis, single compound, rate 20 ppm) was 0%, the inhibition at 5 ppm [1, 7] was 0% and the inhibition at 0.625 ppm ([2]; Botrytis cinerea, alone) was 0%. For the same molecule, the inhibition at 1.25 ppm [2, 11] was 0%, the inhibition at 2.5 ppm [2, 12] was 0% and the inhibition at 5 ppm ([2]; Botrytis cinerea, alone, rate 5 ppm, read-out: Activity (%)) was 0%. The inhibition at 10 ppm ([2]; Botrytis cinerea, alone, rate 10 ppm, read-out: Activity (%)) was 0%.
`CC12CC1(C)C(=O)N(c1cc(Cl)cc(Cl)c1)C2=O` (centres unmarked) [Procymidone] showed an inhibition at 1.25 ppm [2, 11] of 0%, an inhibition at 2.5 ppm [2, 12] of 50% and an inhibition at 0.3125 ppm ([2]; Botrytis cinerea, single compound, rate 0.3125 ppm) of 0%. It also gave an inhibition at 0.625 ppm ([2]; Botrytis cinerea, single compound) of 0% and an inhibition at 1.25 ppm ([2]; Botrytis cinerea, single compound, rate 1.25 ppm) of 0%.
With Abamectin the “Activity (%)” value ([1]; applied alone, 5 ppm) was 0%, the “Activity (%)” value ([1]; applied alone, 10 ppm) was 0% and the “Activity (%)” value ([1]; applied alone, 20 ppm) was 50%. For the same molecule, the “Activity (%)” value [1, 8] was 0%, the “Activity (%)” value ([1]; applied alone, rate 0.3125 ppm) was 0% and the “Activity (%)” value ([1]; applied alone, rate 0.625 ppm) was 0%. The “Activity (%)” value ([1]; applied alone, rate 1.25 ppm) was 0%, the “Activity (%)” value ([1]; applied alone, rate 2.5 ppm) was 0% and the “Activity (%)” value ([2]; alone, rate 1.25 ppm) was 0%. For the same molecule, the “Activity (%)” value ([2]; alone, rate 2.5 ppm) was 0%, the “Activity (%)” value ([2]; alone, rate 5 ppm) was 0% and the “Activity (%)” value ([2]; alone, rate 10 ppm) was 0%. For the same molecule, the “Activity (%)” value ([2]; alone, rate 20 ppm) was 0%.
With `N#Cc1c(Cl)c(Cl)c(Cl)c(C#N)c1Cl` [Chlorothalonil] the inhibition at 0.03125 ppm ([1]; Monographella nivalis, applied alone, 0.03125 ppm) was 0%, the inhibition at 0.0625 ppm [1, 9] was 20% and the inhibition at 0.125 ppm [1, 10] was 70%.
With `COC(=O)Nc1nc2ccccc2[nH]1` [Carbendazim] the inhibition at 0.015625 ppm ([1]; Monographella nivalis, applied alone, rate 0.015625 ppm) was 0%, the inhibition at 0.03125 ppm ([1]; Monographella nivalis, applied alone, rate 0.03125 ppm) was 0% and the inhibition at 0.0625 ppm ([1]; Monographella nivalis, applied alone, rate 0.0625 ppm) was 0%.
In the case of `CON=C(C(=O)OC)c1ccccc1CON=C(C)c1cccc(C(F)(F)F)c1` [Trifloxystrobin], the inhibition at 0.0125 ppm ([2]; Botrytis cinerea, alone, rate 0.0125 ppm) is reported as 0%, the inhibition at 0.025 ppm ([2]; Botrytis cinerea, alone) is reported as 20% and the inhibition at 0.05 ppm ([2]; Botrytis cinerea, alone) is reported as 50%. The inhibition at 0.1 ppm ([2]; Botrytis cinerea, alone) was 50%, the inhibition at 0.5 ppm ([2]; Botrytis cinerea, alone, rate 0.5 ppm) was 50% and the inhibition at 1 ppm ([2]; Botrytis cinerea, alone, rate 1 ppm) was 50%. For the same molecule, the inhibition at 2 ppm ([2]; Botrytis cinerea, alone) was 50%.
